Laboratory results published in patent publication US8298766B2, “Fluorescent dyes, methods of synthesis and applications thereof” (priority 2010, dated 2012).

Tests used:
[1] = tested on: live MCF-7 cells (human breast cancer cells); assay: Imaging of live MCF-7 cells stained with compound by confocal laser scanning microscopy; assay type: cell-based; conditions: 30 min at 37° C., excitation Cy5 channel (633 nm)
Protocol: (§1) FIG. 6A is the white light image of live MCF-7 cells (human breast cancer cells) stained with compound A, 6B is the fluorescence image of live MCF-7 cells stained with compound A. The concentration of compound A is 2 μM. The equipment used is a confocal laser scanning microscope (TCS-SP2). Excitation channel: Cy5 (633 nm).
as §1, with “FIG. 7A” for “FIG. 6A”, “compound D, 7B” for “compound A, 6B”, “compound D.” for “compound A.”, “compound D” for “compound A”, “is 1.5” for “is 2”
as §1, with “FIG. 8A” for “FIG. 6A”, “compound E, and 8B” for “compound A, 6B”, “compound E.” for “compound A.”, “compound E” for “compound A”, “is 3” for “is 2”
The equipment used is a confocal laser scanning microscope (TCS-SP2). Excitation channel: Cy5 (633 nm).
(§2) MCF-7 cells are cultured in DEME (Invitrogen) supplemented with 10% FBS (Invitrogen). One day before imaging, cells are seeded in 24-well flat-bottomed plates. The next day, the live cells were incubated with 2 μM of compound A for 30 min at 37° C. under 5% CO2 and then washed with phosphate-buffered saline (PBS) three times, and then the fluorescence imaging was observed under confocal laser scanning microscopy with a 100× objective lens (excited with Cy5 channel). 1000× magnification was utilized in the imaging. The scale bar represents 20 μm. […] The equipment used is a confocal laser scanning microscope (TCS-SP2). Excitation channel: Cy5 (633 nm). The concentration of compound A is 2 μM.
as §2, with “with 1.5” for “with 2”, “compound D” for “compound A”, “(TCS-SP2). […]” for “(TCS-SP2). Excitation channel: Cy5 (633 nm). The concentration of compound A is 2 μM.”
MCF-7 cells are cultured in DEME (Invitrogen) supplemented with 10% FBS (Invitrogen). […] The next day, the live cells were incubated with 3 μM of compound E for 30 min at 37° C. under 5% CO2 and then washed with phosphate-buffered saline (PBS) three times, and then the fluorescence imaging was observed under confocal laser scanning microscopy with a 100× objective lens (excited with Cy5 channel). […]

calf thymus DNA [2] = assay: Fluorescence intensity before and after addition of calf thymus DNA; assay type: binding; conditions: pH 7.0, 10 mM Tris-HCl buffer; dye 1 μM; calf thymus DNA 40 μg/mL
Protocol: (§3) The ordinate is the fluorescence increasing fold. The equipment used is a spectrofluorophotometer (FP-6500). […] The concentrations of calf thymus DNA and bovine serum albumin are both 40 μg/mL.
(§4) Finally each mixture of dye and BSA solution is diluted with pH 7.0, 10 mM Tris-HCl buffer solution to 3 mL and the fluorescence emission spectra are determined respectively after stabilization. […] Finally each mixture of dye and calf thymus DNA solution is diluted with pH 7.0, 10 mM Tris-HCl buffer solution to 3 mL and the fluorescence emission spectra are determined respectively after stabilization. […] The equipment used is a spectrofluorophotometer (FP-6500).

calf thymus DNA [3] = assay: Fluorescence emission spectra in the absence and presence of calf thymus DNA in buffer solution; assay type: binding; conditions: dye 1 μM, calf thymus DNA 100 μM
Protocol: (§5) FIG. 1 is the comparison of fluorescence emission spectra of compound A with commercially available dye EB in the absence and presence of calf thymus DNA respectively in pH 7.36, 10 mM Tris-HCl buffer. The abscissa is wavelength (nm) and the ordinate is the relative fluorescence intensity. The equipments used are a UV-Vis spectrophotometer (Hp8453) and a spectrofluorophotometer (FP-6500). The concentrations of compound A, EB and calf thymus DNA are 1 μM, 1 μM and 100 μM respectively.
as §5, with “FIG. 2” for “FIG. 1”, “compound B” for “compound A”, “pH 7.4,” for “pH 7.36,”, “compound B,” for “compound A,”, “100 μM,” for “100 μM”
FIG. 3 is the comparison of fluorescence emission spectra of compound C with commercially available dye EB in the absence and presence of calf thymus DNA respectively in pH 7.24, 10 mM Tris-HCl buffer. The abscissa is wavelength (nm) and the ordinate is the relative fluorescence intensity. […]
Determinations of the fluorescence emission spectra of compound A and commercially available dye EB in the absence and presence of calf thymus DNA respectively in buffer solution
Solutions of compound A in DMSO and EB in water are separately prepared with the concentrations of 1 mM. 3 μL of each solution is diluted with 10 mM Tris-HCl buffer solution (pH 7.36) to 3 mL in a cuvette to determine its fluorescence intensity. Solution of calf thymus DNA in water is prepared, whose concentration is determined as 1.5 mM by the adsorption at 260 nm in spectrophotometry (using the molar absorption coefficients of ε260 nm=6600 M^−1 cm^−1). […]
Determinations of the fluorescence emission spectra of compound B and commercially available dye EB in the absence and presence of calf thymus DNA respectively in buffer solution […]

bovine serum albumin = bovine serum albumin (Bos taurus, UniProt P02769); assay: Fluorescence intensity before and after addition of bovine serum albumin; assay type: binding; conditions: pH 7.0, 10 mM Tris-HCl buffer; dye 1 μM; bovine serum albumin 40 μg/mL
Protocol: as §3, §4

bovine serum albumin, sequence (P02769 25-607): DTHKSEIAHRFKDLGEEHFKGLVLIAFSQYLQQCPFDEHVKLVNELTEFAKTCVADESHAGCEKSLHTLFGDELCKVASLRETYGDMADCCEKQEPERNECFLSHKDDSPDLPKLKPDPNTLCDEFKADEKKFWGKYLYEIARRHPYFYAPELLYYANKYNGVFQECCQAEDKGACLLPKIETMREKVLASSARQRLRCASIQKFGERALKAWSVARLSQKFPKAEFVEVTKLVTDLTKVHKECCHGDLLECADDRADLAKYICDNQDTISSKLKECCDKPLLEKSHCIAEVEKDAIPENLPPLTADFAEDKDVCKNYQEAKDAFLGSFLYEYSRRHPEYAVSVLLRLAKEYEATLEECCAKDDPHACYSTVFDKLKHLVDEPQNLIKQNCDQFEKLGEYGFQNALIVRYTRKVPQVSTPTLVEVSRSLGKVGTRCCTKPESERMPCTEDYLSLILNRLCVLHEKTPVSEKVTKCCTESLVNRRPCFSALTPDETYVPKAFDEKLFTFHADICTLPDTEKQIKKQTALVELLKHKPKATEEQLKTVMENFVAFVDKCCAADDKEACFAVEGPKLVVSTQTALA

## CCN1C=C/C(=C\C=C\c2sc3ccccc3[n+]2CC)c2ccccc21 [M1, reference compound]
[1]; 2 μM
  staining pattern of live MCF-7 cells (fluorescence image): simultaneously nucleus and cytoplasm staining
Calf thymus DNA [2]
  fluorescence intensity increase upon binding to calf thymus DNA: 40 fold

## NCCNCCC[n+]1c(/C=C/C=C2\C=CN(CCO)c3ccccc32)sc2ccccc21 [compound C]
Calf thymus DNA [3]; pH 7.24, 10 mM Tris-HCl buffer
  fluorescence increase upon binding to calf thymus DNA (I/I0): 75 fold

## CCCNCC[n+]1c(/C=C/C=C2\C=CN(CCCl)c3cc(C)ccc32)[se]c2ccccc21.[Br-] [compound E]
[1]; 3 μM
  staining pattern of live MCF-7 cells (fluorescence image): nucleus selective staining

## CCN(CC)CCCC[n+]1c(/C=C/C=C2\C=CN(CC)c3ccccc32)sc2ccccc21.[I-] [compound A]
[1]; 2 μM
  staining pattern of live MCF-7 cells (fluorescence image): nucleus selective staining
Calf thymus DNA [2]
  fluorescence intensity increase upon binding to calf thymus DNA: 45.5 fold
Calf thymus DNA [3]; pH 7.36, 10 mM Tris-HCl buffer
  fluorescence increase upon binding to calf thymus DNA (I/I0): 55 fold
Bovine serum albumin
  fluorescence intensity increase with BSA solution: 1.4 fold

## CC1(C)C(/C=C/C=C2\C=CN(Cc3ccccc3)c3ccccc32)=[N+](CCCNc2ccccc2)c2ccc(Cl)cc21.[Br-] [compound D]
[1]; 1.5 μM
  staining pattern of live MCF-7 cells (fluorescence image): nucleus selective staining

## COc1ccc2c(c1)oc(/C=C/C=C1\C=CN(CCCN3CCCCC3)c3ccccc31)[n+]2CCCN1CCCCC1.[Br-] [compound B]
Calf thymus DNA [3]; pH 7.4, 10 mM Tris-HCl buffer
  fluorescence increase upon binding to calf thymus DNA (I/I0): 89 fold
